According to patent US6716818B2, “Caspase inhibitors and the use thereof” (Cytovia, Inc., priority 1999, dated 2004):
cmk = not defined here

How the values were obtained:
[1] = system: dopaminergic neurons grafted to hemiparkinsonian rats; settings: cited from earlier work
[2] = target: T1, rCaspase 3 (Homo sapiens, UniProt P42574); assay: fluorometric caspase-3 enzyme assay (Ac-DEVD-AMC substrate); format: biochemical; settings: 2 ng rCaspase 3, 10 μM Ac-DEVD-AMC, 37° C., 30 minutes
T1 construct: purchased PharMingen, a Becton division company, San Diego, Calif
T1 sequence (P42574 29-175 limits assumed): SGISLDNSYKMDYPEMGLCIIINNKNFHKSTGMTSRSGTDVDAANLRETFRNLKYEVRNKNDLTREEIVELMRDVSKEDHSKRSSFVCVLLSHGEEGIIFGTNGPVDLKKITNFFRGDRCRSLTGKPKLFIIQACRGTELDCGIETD
Experimental: Enzyme activity was measured using synthetic peptide substrates attached to a fluorogenic leaving group. Cleavage of the synthetic substrate by the enzyme results in a fluorescent signal which is read in a spectrofluorometer or in a fluorometric microtiter plate reader.
12 concentrations of the testing compound ranged from 30 μM to […] were tested in the enzyme assay. The enzyme reaction was conducted in the presence of 2 ng rCaspase 3 (purchased from PharMingen, a Becton division company, San Diego, Calif.), various concentrations of testing compound, 10 μM caspase 3 substrate Ac-DEVD-AMC (SEQ ID NO:3) (purchased from Quality Controlled Biochemicals, Inc. Hopkinton, Mass.) and caspase buffer (20 mM PIPES, 100 mM NaCl, 10 mM DTT, 1 mM EDTA, 0.1% CHAPS and 10% sucrose, pH 7.2) in a total volume of 100 μl. The enzyme reaction was carried out in a 96-well plate and incubated at 37° C. for 30 minutes. The plate was then read with a fluorescence plate reader (EG&G WALLAG 1420-002) using excitation filter at 355 nm/emission filter at 460 nm. The data was analyzed using GraphPrism software.

[3] = treatment of the embryonic nigral cell suspension

Row | Compound | functional recovery ([1]; hemiparkinsonian rats) | DNA fragmentation and apoptosis in transplants [1, 3] | survival of dopaminergic neurons grafted to hemiparkinsonian rats [1, 3] | IC50 [2]
1 | Ac-YVAD-cmk (reading uncertain; also: printed as Ac-YVAD-cmk) | substantially improved functional recovery | mitigated DNA fragmentation and reduced apoptosis in transplants | increased survival of dopaminergic neurons | 
2 | CCOC(=O)NC(C(=O)NC(CC(=O)O)C(=O)CF)C(C)C (stereo not drawn) [Ethoxycarbonyl-Val-Asp-fmk] |  |  |  | 58 nM
3 | CC(C)C(NC(=O)OCC1CCCCC1)C(=O)NC(CC(=O)O)C(=O)CF (stereo not drawn) [Cyclohexylmethoxycarbonyl-Val-Asp-fmk] |  |  |  | 72 nM
